# Results taken from patent US12029739B2, “SHP2 inhibitor and use thereof” (KANAPH THERAPEUTICS INC., priority 2021, dated 2024).
# Where two headings read alike, the source gives them in different places.
# How the values were obtained:
# [1] = tested on: phospho-ERK in MIA PaCa2 or H358 cells; assay: Phospho-ERK assay (AlphaLisa); format: cell-based
# SHP2 (full length) = target: T1, SHP2 (full length) (Homo sapiens, UniProt Q06124); assay: Phosphatase assay (PTPase assay) with DiFMUP substrate; format: biochemical; settings: SHP2 activated with SHP2 activating peptide; DiFMUP 80 μM, 2 hours; fluorescence; read-out: IC50 (PTPase aS say)
# T1 construct: SHP2 (full length, diluted to 100 pM final concentration in reaction buffer, BPS bioscience, US); purchased BPS bioscience, US
# T1 sequence (Q06124 1-593): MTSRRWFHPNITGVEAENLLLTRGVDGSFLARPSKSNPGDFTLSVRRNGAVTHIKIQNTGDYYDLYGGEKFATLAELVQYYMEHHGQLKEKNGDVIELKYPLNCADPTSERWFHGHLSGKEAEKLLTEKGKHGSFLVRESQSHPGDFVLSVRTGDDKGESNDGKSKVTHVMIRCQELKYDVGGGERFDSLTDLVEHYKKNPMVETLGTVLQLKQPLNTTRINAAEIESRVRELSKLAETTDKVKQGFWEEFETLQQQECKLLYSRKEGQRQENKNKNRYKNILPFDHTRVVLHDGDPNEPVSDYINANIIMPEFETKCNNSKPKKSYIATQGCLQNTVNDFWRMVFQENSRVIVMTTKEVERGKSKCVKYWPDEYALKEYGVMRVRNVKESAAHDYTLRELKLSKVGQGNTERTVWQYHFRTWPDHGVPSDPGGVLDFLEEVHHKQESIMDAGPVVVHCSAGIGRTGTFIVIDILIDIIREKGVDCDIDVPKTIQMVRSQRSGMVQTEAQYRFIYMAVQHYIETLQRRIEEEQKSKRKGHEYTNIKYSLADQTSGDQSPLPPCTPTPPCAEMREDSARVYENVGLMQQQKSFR
# [2] = 1.5 h, MIA PaCa2 or H358 cells, compound incubated 1.5 hours, read-out: IC50 (p-ERK)
# [3] = MIA PaCa2 or H358 cells, compound incubated 1.5 hours, read-out: IC50 (p-ERK)
"IC50 [1, 2] [nM]",IC50 (SHP2 (full length)) [nM],Structure (SMILES),other results
< 45,< 3,"CC(C)(O)Cn1cnc2ccc(Sc3cnc(N4CCC5(CC4)Cc4ncsc4[C@H]5N)cn3)c(Cl)c2c1=O [Example 147, 6-[5-[(6S)-6-aminospiro[4,6-dihydrocyclopenta[d]thiazole-5,4′piperidin]1′-yl]pyrazin-2-yl]sulfanyl-5-chloro-3-(2-hydroxy-2-methyl-propyl)quinazolin-4-one]",
45 to 1500,3 to 100,"CC1(N)CCN(c2cnc(Sc3ccc4ncn(-c5ccccc5)c(=O)c4c3Cl)cn2)CC1 [Example 28, 6-((5-(4-amino-4-methylpiperidin-1-yl)pyrazin-2-yl)thio)-5-chloro-3-phenylquinazolin-4(3H)-one]",
45 to 1500,3 to 100,"C[C@@H]1OCC2(CCN(c3cnc(Sc4ccc5ncn(CCCN(C)C)c(=O)c5c4Cl)cn3)CC2)[C@@H]1N [Example 68, 6-((5-((3S,4S)-4-amino-3-methyl-2-oxa-8-azaspiro[4.5]decan-8-yl)pyrazin-2-yl)thio)-5-chloro-3-(3-(dimethylamino)propyl)quinazolin-4(3H)-one]",
,< 3,"N[C@@H]1c2ccccc2CC12CCN(c1cnc(Sc3ccc4ncn(Cc5ccccc5)c(=O)c4c3Cl)cn1)CC2 [Example 99, (S)-6-((5-(1-amino-1,3-dihydrospiro(indene-2,4′-piperidin]-1′-yl)pyrazin-2-yl)thio)-3-benzyl-5-chloroquinazolin-4(3H)-one]",
> 1500,> 100,"Cn1c(N2CCN(CCCN)CC2)nc(N)c(Sc2cccc(Cl)c2Cl)c1=O [Example 199, 6-amino-2-(4-(3-aminopropyl)piperazin-1-yl)-5-((2,3-dichlorophenyl)thio)-3-methylpyrimidin-4(3H)-one]",
> 1500,> 100,"Cn1c(N2CCN(CCN)CC2)nc(N)c(Sc2ccnc(Cl)c2Cl)c1=O [Example 193, 6-amino-2-(4-(2-aminoethyl)piperazin-1-yl)-5-((2,3-dichloropyridin-4-yl)thio)-3-methylpyrimidin-4(3H)-one]",
< 45,< 3,C[C@@H]1OCC2(CCN(c3cnc(Sc4ccc5c(=O)n(Cc6ccccc6)cnc5c4Cl)cn3)CC2)[C@@H]1N [Example 132],
45 to 1500,3 to 100,"C[C@@H]1OCC2(CCN(c3cnc(Sc4ccc5ncn(Cc6cccnc6N)c(=O)c5c4Cl)cn3)CC2)[C@@H]1N [Example 52, 6-((5-((3S,4S)-4-amino-3-methyl-2-oxa-8-azaspiro[4.5]decan-8-yl)pyrazin-2-yl)thio)-3-((2-aminopyridin-3-yl)methyl)-5-chloroquinazolin-4(3H)-one]",
< 45,< 3,C[C@@H]1OCC2(CCN(c3cnc(Sc4ccc5c(nc(OC6CCOC6)n5C)c4Cl)cn3)CC2)[C@@H]1N (stereo partly drawn) [Example 130],
,,"Cc1nc2ccc(Sc3cnc(N4CCC(C)(CN)CC4)cn3)c(Cl)c2c(=O)n1Cc1cccc(S(=O)(=O)F)c1 [Example 21, 3-((6-((5-(4-(aminomethyl)-4-methylpiperidin-1-yl)pyrazin-2-yl)thio)-5-chloro-2methyl-4-oxoquinazolin-3(4H)-yl)methyl)benzenesulfonyl fluoride]","IC50 [1, 3]: 45 to 1500 nM"
> 1500,3 to 100,"CNS(=O)(=O)c1cccc(Sc2cnc(N3CCC(C)(N)CC3)cn2)c1Cl [Example 8, 3-((5-(4-amino-4-methylpiperidin-1-yl)pyrazin-2-yl)thio)-2-chloro-N-methylbenzenesulfonamide]",
< 45,3 to 100,"C[C@@H]1OCC2(CCN(c3cnc(Sc4ccc5ncn(CCOC(F)(F)F)c(=O)c5c4Cl)cn3)CC2)[C@@H]1N [Example 96, 6-((5-((3S,4S)-4-amino-3-methyl-2-oxa-8-azaspiro[4.5]decan-8-yl)pyrazin-2-yl)thio)-5-chloro-3-(2-(trifluoromethoxy)ethyl)quinazolin-4(3H)-one]",
45 to 1500,3 to 100,COCCn1cnc2ccc(Sc3cnc(N4CCC5(CC4)Cc4ncccc4[C@H]5N)cn3)c(Cl)c2c1=O [Example 108],
,> 100,"Cn1c(N2CCN(C[C@@H](N)Cc3ccncc3)CC2)nc(N)c(Sc2cccc(Cl)c2Cl)c1=O [Example 187, (S)-6-amino-2-(4-(2-amino-3-(pyridin-4-yl)propyl)piperazin-1-yl)-5-((2,3-dichlorophenyl)thio)-3-methylpyrimidin-4(3H)-one]",
,> 100,Cn1c(N2CCN(CCN)CC2)nc(N)c(Sc2ccnc(N)c2Cl)c1=O [Example 192],
,< 3,"C[C@@H]1OCC2(CCN(c3cnc(Sc4ccc5ncn(Cc6ccno6)c(=O)c5c4Cl)cn3)CC2)[C@@H]1N [Example 57, 6-((5-((3S,4S)-4-amino-3-methyl-2-oxa-8-azaspiro[4.5]decan-8-yl)pyrazin-2-yl)thio)-5-chloro-3-(isoxazol-5-ylmethyl)quinazolin-4(3H)-one]",
,3 to 100,"N[C@H]1c2cccnc2CC12CCN(c1cnc(Sc3ccc4ncn(Cc5ccccc5)c(=O)c4c3Cl)cn1)CC2 [Example 101, (R)-6-((5-(5-amino-5,7-dihydrospiro[cyclopenta[b]pyridine-6,4′-piperidin]-1′-yl)pyrazin-2-yl)thio)-3-benzyl-5-chloroquinazolin-4(3H)-one]",
,3 to 100,N[C@H]1c2ccccc2CC12CCN(c1cnc(Sc3ccc4ncn(Cc5ccccc5)c(=O)c4c3Cl)cn1)CC2 [Example 100],
,3 to 100,"C[C@@H]1OCC2(CCN(c3cnc(Sc4ccc5ncn(CCO)c(=O)c5c4Cl)cn3)CC2)[C@@H]1N [Example 58, 6-((5-((3S,4S)-4-amino-3-methyl-2-oxa-8-azaspiro[4.5]decan-8-yl)pyrazin-2-yl)thio)-5-chloro-3-(2-hydroxyethyl)quinazolin-4(3H)-one]",
,< 3,"COCCn1cnc2ccc(Sc3ncc(N4CCC5(CC4)Cc4ncsc4[C@H]5N)nc3N)c(Cl)c2c1=O [Example 164, (S)-6-((3-amino-5-(6-amino-4,6-dihydrospiro[cyclopenta[d]thiazole-5,4′-piperidin]-1′-yl)pyrazin-2-yl)thio)-5-chloro-3-(2-methoxyethyl)quinazolin-4(31-1)-one]",
,3 to 100,"C[C@@H]1OCC2(CCN(c3cnc(Sc4ccnc(C(=O)NCc5ccccc5)c4Cl)cn3)CC2)[C@@H]1N [Example 86, 4-((5-((3S,4S)-4-amino-3-methyl-2-oxa-8-azaspiro[4.5]decan-8-yl)pyrazin-2-yl)thio)-N-benzyl-3-chloropicolinamide]",
,,"COCCn1cnc2ccc(Sc3cnc(N4CCC5(CC4)CO[C@@H](C)[C@H]5N)nn3)c(Cl)c2c1=O [Example 183, 6-((3-((3S,4S)-4-amino-3-methyl-2-oxa-8-azaspiro[4.5]decan-8-yl)-1,2,4-triazin-6-yl)thio)-5-chloro-3-(2-methoxyethyl)quinazolin-4(3H)-one]","IC50 [1, 3]: > 1500 nM"
,3 to 100,"C[C@@H]1OCC2(CCN(c3cnc(Sc4ccc5ncn(CC6CCNC6)c(=O)c5c4Cl)cn3)CC2)[C@@H]1N (stereo partly drawn) [Example 55, 6-((5-((3S,4S)-4-amino-3-methyl-2-oxa-8-azaspiro[4.5]decan-8-yl)pyrazin-2-yl)thio)-5-chloro-3-(pyrrolidin-3-ylmethyl)quinazolin-4(3H)-one]",
,< 3,"COc1ccc2c(c1)[C@@H](N)C1(CCN(c3cnc(Sc4ccc5ncn(CC(C)(C)O)c(=O)c5c4Cl)cn3)CC1)C2 [Example 162, (S)-6-((5-(1-amino-6-methoxy-1,3-dihydrospiro[indene-2,4′-piperidin]-1′-yl)pyrazin-2-yl)thio)-5-chloro-3-(2-hydroxy-2-methylpropyl)quinazolin-4(3H)-one]",
,,"C[C@@H]1OCC2(CCN(c3cnc(Sc4ccnc(N)c4Cl)c(N)n3)CC2)[C@@H]1N [TNO155, (3S,4S)-8-(6-amino-5-((2-amino-3-chloropyridin-4-yl)thio)pyrazin-2-yl)-3-methyl-2-oxa-8-azaspiro[4.5]decan-4-amine, reference compound]","IC50 [1, 3]: < 45 nM"
,,"CC1(N)CCN(c2cnc(-c3cccc(Cl)c3Cl)c(N)n2)CC1 [SHP099, 6-(4-amino-4-methylpiperidin-1-yl)-3-(2,3-dichlorophenyl)pyrazin-2-amine, reference compound]","IC50 ([1]; 1.5 h, read-out: IC50 (p-ERK, nM)): 45 to 1500 nM"
,3 to 100,"C[C@@H]1OCC2(CCN(c3cnc(Sc4ccc5ncn(CC6CCCN6)c(=O)c5c4Cl)cn3)CC2)[C@@H]1N (stereo partly drawn) [Example 54, 6-((5-((3S,4S)-4-amino-3-methyl-2-oxa-8-azaspiro[4.5]decan-8-yl)pyrazin-2-yl)thio)-5-chloro-3-(pyrrolidin-2-ylmethyl)quinazolin-4(3H)-one]",
,< 3,"C[C@@H]1OCC2(CCN(c3cnc(Sc4ccc5ncn(Cc6ccon6)c(=O)c5c4Cl)cn3)CC2)[C@@H]1N [Example 56, 6-((5-((3S,4S)-4-amino-3-methyl-2-oxa-8-azaspiro[4.5]decan-8-yl)pyrazin-2-yl)thio)-5-chloro-3-(isoxazol-3-ylmethyl)quinazolin-4(3H)-one]",
